# Data as given in PMC8964421, “Widespread occurrence of covalent lysine–cysteine redox switches in proteins” (Nature Chemical Biology, 2022).
# Molecular target: T1, NgTAL; transaldolase from Neisseria gonorrhoeae (Neisseria gonorrhoeae, UniProt Q5F6E9)
# T1 construct: gene tal; recombinant from pET SUMO vector, purified
# T1 sequence (Q5F6E9 1-351): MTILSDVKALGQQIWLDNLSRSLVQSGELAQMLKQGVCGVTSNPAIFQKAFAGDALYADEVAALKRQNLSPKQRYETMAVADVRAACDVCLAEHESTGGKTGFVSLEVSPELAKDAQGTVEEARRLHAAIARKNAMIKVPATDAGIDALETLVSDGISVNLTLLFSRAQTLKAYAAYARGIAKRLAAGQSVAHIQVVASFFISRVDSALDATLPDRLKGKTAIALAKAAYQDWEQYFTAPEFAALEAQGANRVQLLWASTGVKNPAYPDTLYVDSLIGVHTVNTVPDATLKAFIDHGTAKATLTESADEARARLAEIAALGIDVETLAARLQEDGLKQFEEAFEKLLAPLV
# Assay: coupled enzymatic assay at […] nm, steady-state kinetics
# Type: biochemical
# Settings: co-substrate D-erythrose-4-phosphate; reducing (1 mM DTT) and non-reducing conditions; varied substrate not named in main text
smiles,measurement,value
O=P(O)(O)OC[C@H]1OC(O)(CO)[C@@H](O)[C@@H]1O (stereo partly drawn) [D-fructose-6-phosphate],Michaelis constant,monitors the conversion of ketose donor D-fructose-6-phosphate and aldose acceptor D-erythrose-4-phosphate into products
